Assay results reported in patent publication US20060069132A1, “Azolecarboxamide herbicides” (priority 2004, published 2006).

Assays:
barnyardgrass [1] = experiment: Test C flooded paddy test; format: in vivo, Echinochloa crus-galli
How it was run: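 Weeds and wheat were sprayed after emergence, at a height of 2 to 18 cm (1–4 leaves), and paddy barnyardgrass was flooded and treated at two leaves. Assessment took place 12–14 days later in the greenhouse on a 0-to-100 visual control scale. A dash means no result was obtained.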

lambsquarters = experiment: Test B pre-/postemergence herbicide test; format: in vivo, Chenopodium album; conditions: for Lambsquarters plant response rating: postemergence
How it was run: (§1)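 Test chemicals in a non-phytotoxic solvent mixture with surfactant were applied preemergence to seeded species and postemergence to plants 2-18 cm tall (1- to 4-leaf stage); rice and barnyardgrass were also tested in a flooded paddy at the 2-leaf stage. Visual rating versus controls after 13-15 days in greenhouse, scale 0 (no effect) to 100 (complete control).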

giant foxtail = experiment: Test B pre-/postemergence herbicide test; format: in vivo, Setaria faberi; conditions: for Foxtail, Giant plant response rating: postemergence
How it was run: as §1

[2] = tested on: small flower umbrella sedge; experiment: Test B flooded paddy test; format: in vivo, Cyperus difformis; conditions: 1000 g ai/ha, scale 0 to 100 (0 no effect, 100 complete control)
How it was run: (§2)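 After treating 2-leaf paddy plants or 2–18 cm postemergence plants (1 to 4 leaves) with formulated chemical, researchers kept them in a greenhouse for 13–15 days. Effects were judged visually versus controls: 0 indicates none, 100 total control.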

rice [3] = experiment: Test B flooded paddy test; format: in vivo, Oryza sativa; conditions: 1000 g ai/ha, scale 0 to 100 (0 no effect, 100 complete control)
How it was run: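 Paddy species grown to the 2-leaf stage under flooding; blackgrass sprayed postemergence at 2–18 cm (1- to 4-leaf stage). Plants kept in a greenhouse for 13 to 15 days, then visually rated against controls on 0 (no effect) to 100 (complete control).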

cocklebur = experiment: Test B pre-/postemergence herbicide test; format: in vivo, Xanthium strumarium; conditions: postemergence, visual rating, scale 0 (no effect) to 100 (complete control)
How it was run: (§3)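 Flooded paddy rice and barnyardgrass were treated at the 2-leaf stage; upland plantings received compound either on sown seed or on 1- to 4-leaf seedlings. All were kept 13–15 days in a greenhouse and scored visually, 0–100, relative to untreated plants.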

ducksalad [4] = experiment: Test C flooded paddy test; format: in vivo, Heteranthera limosa
barnyardgrass [5] = experiment: Test B flooded paddy test; format: in vivo, Echinochloa crus-galli; conditions: 1000 g ai/ha, scale 0 to 100 (0 no effect, 100 complete control)
How it was run: as §2

pigweed = experiment: Test B pre-/postemergence herbicide test; format: in vivo, Amaranthus retroflexus; conditions: for Pigweed plant response rating: postemergence
How it was run: as §1

wild oat = experiment: Test B postemergence herbicide test; format: in vivo, Avena fatua; conditions: postemergence
How it was run: as §2

[6] = tested on: smallflower umbrella sedge; experiment: Test C flooded paddy test; format: in vivo, Cyperus difformis
blackgrass = experiment: Test B postemergence herbicide test; format: in vivo, Alopecurus myosuroides; conditions: postemergence, visual rating, scale 0 (no effect) to 100 (complete control)
How it was run: as §2

barnyardgrass [7] = experiment: Test B pre-/postemergence herbicide test; format: in vivo, Echinochloa crus-galli; conditions: for Barnyardgrass plant response rating: postemergence, scale 0 (no effect) to 100 (complete control)
How it was run: as §3

wheat = experiment: Test B postemergence herbicide test; format: in vivo, Triticum aestivum; set-up: key to Wheat plant response rating: 0 = no effect, 100 = complete control; conditions: postemergence
How it was run: as §2

velvetleaf = experiment: Test B pre-/postemergence herbicide test; format: in vivo, Abutilon theophrasti; conditions: for Velvetleaf plant response rating: postemergence
How it was run: as §1

Surinam grass = experiment: Test B pre-/postemergence herbicide test; format: in vivo, Urochloa decumbens; conditions: for Surinam Grass plant response rating: postemergence
How it was run: as §1

ducksalad [8] = experiment: Test B flooded paddy test; format: in vivo, Heteranthera limosa; conditions: 1000 g ai/ha, scale 0 to 100 (0 no effect, 100 complete control)
How it was run: as §2

morningglory = experiment: Test B pre-/postemergence herbicide test; format: in vivo, Ipomoea coccinea; conditions: for Morningglory plant response rating: postemergence
How it was run: as §3

large crabgrass = experiment: Test B pre-/postemergence herbicide test; format: in vivo, Digitaria sanguinalis; conditions: for Crabgrass, Large plant response rating: postemergence
How it was run: as §1

rice [9] = experiment: Test C flooded paddy test; format: in vivo, Oryza sativa
How it was run: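 Postemergence sprays applied to plants 2 to 18 cm tall (1- to 4-leaf stage); paddy species grown to 2-leaf stage under flooding. After 12 to 14 days in greenhouse, visual rating versus untreated controls on 0–100 scale (0 no effect, 100 complete control).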

corn = experiment: Test B pre-/postemergence herbicide test; format: in vivo, Zea mays; conditions: for Corn plant response rating: postemergence
How it was run: as §1

rice [10] = experiment: Test B pre-/postemergence herbicide test; format: in vivo, Oryza sativa; conditions: 0 = no effect, 100 = complete control, preemergence
How it was run: as §1

[11] = 125 g ai/ha, scale 0 to 100 (0 no effect, 100 complete control)
[12] = 250 g ai/ha, scale of 0 to 100, 0 is no effect, 100 is complete control
[13] = 500 g ai/ha, visual rating after 12 to 14 days, scale 0 to 100 (0 no effect, 100 complete control)
[14] = 125 g ai/ha, 0 = no effect, 100 = complete control, preemergence
[15] = 500 g ai/ha, visual rating, 0 = no effect, 100 = complete control, preemergence
[16] = 125 g ai/ha, visual rating, scale 0 (no effect) to 100 (complete control)
[17] = 500 g ai/ha, scale 0 to 100, 0 is no effect, 100 is complete control

CCN(C)C(=O)c1cncc(NC(=O)c2cc(C(C)(C)C)nn2CC)c1 [Compound 263]
Barnyardgrass plant response rating (barnyardgrass [1]; 62 g ai/ha, scale 0 to 100 (0 no effect, 100 complete control)): 0 | Barnyardgrass plant response rating (barnyardgrass [1]; [11]): 0 | Barnyardgrass plant response rating (barnyardgrass [1]; [12]): 0 | Plant response rating, Barnyardgrass (barnyardgrass [1]; [13]): 0 | Lambsquarters plant response rating (0 to 100 scale) (lambsquarters; [14]): 70 | Plant response rating, Lambsquarters (lambsquarters; [15]): 100 | Lambsquarters plant response rating (lambsquarters; [16]): 70 | Lambsquarters plant response rating (lambsquarters; [17]): 80 | Foxtail, Giant plant response rating (0 to 100 scale) (giant foxtail; [14]): 0 | Plant response rating, Foxtail, Giant (giant foxtail; [15]): 20 | Foxtail, Giant plant response rating (giant foxtail; [16]): 0 | Foxtail, Giant plant response rating (giant foxtail; [17]): 20 | Sedge, Umbrella plant response rating [2]: 80 | Rice plant response rating (rice [3]): 70 | Cocklebur plant response rating (cocklebur; 125 g ai/ha): 0 | Cocklebur plant response rating (cocklebur; 500 g ai/ha): 10 | Ducksalad plant response rating (ducksalad [4]; 62 g ai/ha, scale 0 to 100): 0 | Ducksalad plant response rating (ducksalad [4]; [11]): 0 | Ducksalad plant response rating (ducksalad [4]; [12]): 75 | Plant response rating, Ducksalad (ducksalad [4]; [13]): 90 | Barnyardgrass plant response rating (barnyardgrass [5]): 60 | Pigweed plant response rating (0 to 100 scale) (pigweed; [14]): 80 | Plant response rating, Pigweed (pigweed; [15]): 100 | Pigweed plant response rating (pigweed; [16]): 60 | Pigweed plant response rating (pigweed; [17]): 90 | Oat, Wild plant response rating (wild oat; [16]): 10 | Oat, Wild plant response rating (wild oat; [17]): 20 | Sedge, Umbrella plant response rating ([6]; 62 g ai/ha, scale 0 to 100): 0 | Sedge, Umbrella plant response rating [6, 11]: 0 | Sedge, Umbrella plant response rating [6, 12]: 30 | Plant response rating, Sedge, Umbrella [6, 13]: 50 | Blackgrass plant response rating (blackgrass; 125 g ai/ha): 10 | Blackgrass plant response rating (blackgrass; 500 g ai/ha): 20 | Barnyardgrass plant response rating (0 to 100 scale) (barnyardgrass [7]; [14]): 10 | Plant response rating, Barnyardgrass (barnyardgrass [7]; [15]): 40 | Barnyardgrass plant response rating (barnyardgrass [7]; 125 g ai/ha, visual rating): 0 | Barnyardgrass plant response rating (barnyardgrass [7]; 500 g ai/ha, visual rating): 10 | Wheat plant response rating (wheat; [16]): 10 | Wheat plant response rating (wheat; [17]): 20 | Velvetleaf plant response rating (0 to 100 scale) (velvetleaf; [14]): 10 | Plant response rating, Velvetleaf (velvetleaf; [15]): 90 | Velvetleaf plant response rating (velvetleaf; [16]): 20 | Velvetleaf plant response rating (velvetleaf; [17]): 20 | Surinam Grass plant response rating (0 to 100 scale) (Surinam grass; [14]): 10 | Plant response rating, Surinam Grass (Surinam grass; [15]): 30 | Surinam Grass plant response rating (Surinam grass; [16]): 10 | Surinam Grass plant response rating (Surinam grass; [17]): 10 | Ducksalad plant response rating (ducksalad [8]): 90 | Morningglory plant response rating (0 to 100 scale) (morningglory; [14]): 0 | Plant response rating, Morningglory (morningglory; [15]): 0 | Morningglory plant response rating (morningglory; [16]): 0 | Morningglory plant response rating (morningglory; [17]): 20 | Crabgrass, Large plant response rating (0 to 100 scale) (large crabgrass; [14]): 10 | Plant response rating, Crabgrass, Large (large crabgrass; [15]): 60 | Crabgrass, Large plant response rating (large crabgrass; [16]): 10 | Crabgrass, Large plant response rating (large crabgrass; [17]): 20 | Rice plant response rating (rice [9]; 62 g ai/ha, scale 0 to 100): 0 | Rice plant response rating (rice [9]; [11]): 0 | Rice plant response rating (rice [9]; [12]): 0 | Plant response rating, Rice (rice [9]; [13]): 25 | Corn plant response rating (0 to 100 scale) (corn; [14]): 0 | Plant response rating, Corn (corn; [15]): 0 | Corn plant response rating (corn; [16]): 0 | Corn plant response rating (corn; [17]): 10 | Rice plant response rating (0 to 100 scale) (rice [10]; 125 g ai/ha): 0 | Plant response rating, Rice (rice [10]; 500 g ai/ha, visual rating): 10
